Data reported in article PMC6232958 (Molecular Biology of the Cell, 2018).

Test system: CRM1-mediated nuclear export of EYFP2-SV40NLS-NES reporter in HeLa cells
Assay: Inhibition of reporter nuclear export by cotransfected RFP-NES or by LMB
Format: cell-based
Details: HeLa cells expressing EYFP2-SV40NLS-PKI NES treated with LMB (5 nM, 16-18 h)

CCC(=C/[C@H](C)C/C=C/C(C)=C/[C@@H](C)C(=O)[C@@H](C)[C@H](O)[C@@H](C)C/C(C)=C/C(=O)O)/C=C/[C@@H]1OC(=O)C=C[C@@H]1C [leptomycin B]
decrease of nuclear export of PKI NES: 92%
